Results on 4 compounds are retold here after patent US20260076970A1, “CANCER TREATMENT USING MTDP INHIBITORS AND PLK1 INHIBITORS” (Cardiff Oncology, Inc., priority 2022, published 2026).

One data set in a line: clinical. As to conditions: human, in vivo, po.
In data set [1] the test system is HT29 human colon adenocarcinoma xenografts. Put plainly: HT29 xenograft, combination with irinotecan. It is filed as in vivo. To be noted: in combination with irinotecan.
The next data set concerns patients with mCRPC. Put plainly: onvansertib plus abiraterone in patients with mCRPC (NCT03414034). It is filed as in vivo, human.
A short description of data set [2]: concentration for anti-tumoral activity in mice. It is filed as in vivo. An excerpt: (§1) In Table 1, IC50 is shown as mean±SEM (standard error of mean).
Data set [3] deals with disseminated model of AML. Put plainly: disseminated model of AML, combination with cytarabine. It is filed as in vivo. As to conditions: in combination therapy with cytarabine.
Data set [4] in a line: pharmacologic parameters of onvansertib. The class given is in vivo.
Another data set addresses PLK1 (Homo sapiens, UniProt P53350). Put plainly: biochemical assays, panel of 296 kinases. As to conditions: including other PLK members.
Data set [5] relates to CYP2C8, CYP2C9, CYP2C19, CYP2D6, CYP3A4. Put plainly: CYP inhibition in human liver microsomes, summary over isoforms. It is filed as in vitro ADME. To be noted: range over isoforms.
Excerpt: as §1

Another data set has as its system AML cell lines. Put plainly: cell proliferation in AML cell lines. It is filed as cell-based.
In data set [6] the target is panel of 63 kinases other than PLK1. Put plainly: kinase panel selectivity (63 kinases). It is filed as biochemical.
Another data set concerns the target T1, CYP1A2 (Homo sapiens, UniProt P05177).
T1 construct: was investigated using human liver microsomes; from tissue; host or cells: human liver microsomes
T1 sequence (P05177 1-516): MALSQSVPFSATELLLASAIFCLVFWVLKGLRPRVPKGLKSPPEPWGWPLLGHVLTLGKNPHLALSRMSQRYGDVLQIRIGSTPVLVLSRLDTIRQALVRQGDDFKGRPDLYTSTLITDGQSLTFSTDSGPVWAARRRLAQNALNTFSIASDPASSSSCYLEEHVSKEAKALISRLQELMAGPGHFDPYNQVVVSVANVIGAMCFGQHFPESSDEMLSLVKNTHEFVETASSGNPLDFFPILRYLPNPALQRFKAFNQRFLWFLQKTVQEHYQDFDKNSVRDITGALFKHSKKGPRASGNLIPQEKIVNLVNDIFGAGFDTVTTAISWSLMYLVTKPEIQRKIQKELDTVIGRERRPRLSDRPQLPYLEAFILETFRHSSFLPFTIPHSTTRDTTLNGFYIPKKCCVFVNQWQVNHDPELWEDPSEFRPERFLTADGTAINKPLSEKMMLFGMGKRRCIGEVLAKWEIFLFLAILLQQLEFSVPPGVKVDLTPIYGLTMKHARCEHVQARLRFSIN
Put plainly: CYP inhibition in human liver microsomes. The class given is in vitro ADME.
Excerpt: as §1

The next data set relates to SUM159 xenografts. Put plainly: SUM159 mouse xenograft. It is filed as in vivo. As to conditions: at 21 days; onvansertib 120 mg/Kg P.O. day 1 and 2 weekly or paclitaxel 10 mg/Kg I.P. day 1 weekly.
Data set [7] relates to metastatic breast cancer patients. To be noted: cited from earlier work.
Data set [8] concerns patients with AML. To be noted: intravenously in combination with LDAC; treatment-naïve AML; cited from earlier work.
Data set [9] concerns patients with AML. To be noted: in combination with LDAC; cited from earlier work.
Data set [10] has as its system patients with metastatic TNBC. As to conditions: with chemotherapy vs chemotherapy and placebo; tumors strongly positive for PD-L1 (CPS>10); cited from earlier work.

What is called half-life is the time needed for the level to fall by half in the phase considered. Higher therefore signals slow loss. As a reminder, the IC50 is the concentration that gives 50% inhibition. Low readings indicate higher potency, high ones lower potency.

Where two headings read alike, the source gives them in different places.

PLK1, sequence (P53350 whole entry, canonical isoform): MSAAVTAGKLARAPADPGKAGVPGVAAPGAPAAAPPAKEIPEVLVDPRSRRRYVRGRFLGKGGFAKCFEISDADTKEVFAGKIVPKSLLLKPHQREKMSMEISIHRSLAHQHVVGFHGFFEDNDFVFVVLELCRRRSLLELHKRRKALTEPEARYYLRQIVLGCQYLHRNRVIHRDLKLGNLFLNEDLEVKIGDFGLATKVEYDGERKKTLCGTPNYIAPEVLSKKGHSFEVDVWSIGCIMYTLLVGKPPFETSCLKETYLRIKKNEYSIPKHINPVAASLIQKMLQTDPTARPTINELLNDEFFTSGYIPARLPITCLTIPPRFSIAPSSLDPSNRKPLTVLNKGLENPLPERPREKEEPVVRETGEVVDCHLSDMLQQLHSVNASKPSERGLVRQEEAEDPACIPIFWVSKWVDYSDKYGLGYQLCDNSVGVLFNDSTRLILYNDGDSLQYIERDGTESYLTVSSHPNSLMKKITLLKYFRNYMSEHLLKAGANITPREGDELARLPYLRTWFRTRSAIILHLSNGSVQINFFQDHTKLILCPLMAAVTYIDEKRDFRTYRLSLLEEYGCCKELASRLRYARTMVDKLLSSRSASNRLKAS

Consider `CN1CCN(c2ccc(OC(F)(F)F)c(Nc3ncc4c(n3)-c3c(c(C(N)=O)nn3CCO)CC4)c2)CC1` [onvansertib, 1-(2-hydroxyethyl)-8-{[5-(4-methylpiperazin-1-yl)-2-(trifluoromethoxy)phenyl]amino}-4,5-dihydro-1H-pyrazolo[4,3-h]quinazoline-3-carboxamide], for which the half-life in “clinical” is 20 to 30 h; in data set [4] (in vivo), 24 h. The “tumor regression compared to each agent alone” value in data set [1] is “enhanced tumor regression”. In addition, the “evaluable patients who met the primary efficacy endpoint” value is 60% in the data set with patients with mCRPC (12 mg/m^2, 14+7 regimen with abiraterone, 5 evaluable) and 30% in the data set on patients with mCRPC (18 mg/m^2, 5+9 regimen, 10 evaluable). In the data set with patients with mCRPC (12 mg/m^2 QD 14+7 regimen with abiraterone QD, 9 patients), the hematological toxicities reported entry was “no Grade 2 or higher hematological toxicities”. Also, the “concentrations relevant to achieve significant anti-tumoral activity” value in data set [2] was about 1 µM. For the same compound, the survival of animals result in [3] is listed as “prolonged survival”. The oral bioavailability entry in data set [4] (rodent and nonrodent species) is listed as “good oral bioavailability”. The “specificity for PLK1 among a panel of 296 kinases” value at PLK1 is “high specificity”. Further, the results for the IC50 in [5] and in data set [6] were 20 to 66 µM and over 0.5 µM, respectively. Further, the “inhibition of cell proliferation” value in the data set on AML cell lines was “nanomolar concentrations”. At CYP1A2, the “inhibitory effects against CYP1A2” value is given as “No significant inhibitory effects”. The “tumor growth inhibition, difference compared to controls” value in the data set on SUM159 xenografts is given as −0.406.
Take `CC(=O)O[C@H]1C(=O)[C@@]2(C)[C@H]([C@H](OC(=O)c3ccccc3)[C@]3(O)C[C@H](OC(=O)[C@H](O)[C@@H](NC(=O)c4ccccc4)c4ccccc4)C(C)=C1C3(C)C)[C@]1(OC(C)=O)CO[C@@H]1C[C@@H]2O` [paclitaxel, 5β,20-Epoxy-1,2α,4,7β,10β,13α-hexahydroxytax-11-en-9-one 4,10-diacetate 2-benzoate 13-ester with (2R,3S)-N-benzoyl-3-phenylisoserine]: in data set [7] (80 mg/m^2 weekly, 212 patients), the “Grade 3 anemia” value is listed as 9%. Further, the “Grade 3 or 4 neutropenia” value in data set [7] (80 mg/m^2 weekly, 212 patients) is on record as 15%. Moreover, the responses is reported as 15.6% in data set [7] (45 assessable patients with prior taxane therapy) and 17.6% in data set [7] (131 assessable patients with prior anthracycline therapy). Besides, the overall response rate in [7] (177 assessable patients) was 21.5%. Moreover, the “median time to progression” value is given as 142 days in data set [7] (assessable patients), 174 days in data set [7] (no prior chemotherapy for metastatic disease), 140 days in data set [7] (one prior regimen) and 85 days in data set [7] (two prior regimens). Moreover, in data set [7] (in vivo), the “grade 3 neuropathy” value is recorded as 9%. Further, in [7] (in vivo), the “grade 4 neuropathy” value is “no patient”. The “median number of courses of therapy until development of grade 2 or 3 neuropathy” value in [7] (in vivo) was “five”. In addition, in the data set with SUM159 xenografts, the “tumor growth inhibition, difference compared to controls” value is listed as −0.337.
In the case of `CC[C@@H]1C(=O)N(C)c2cnc(Nc3ccc(C(=O)N[C@H]4CC[C@H](N5CCN(CC6CC6)CC5)CC4)cc3OC)nc2N1C(C)C` [volasertib], the “OS compared with LDAC alone” value in the data set with patients with AML [8] is “significant increase in OS”. Also, in the data set on patients with AML [9], the “benefit of the combination” value is on record as “no benefit” and the “risk of severe infections” value is listed as “increased risk of severe infections”.
As to “Pembrolizumab: a monoclonal antibody directed against the PD-1 receptor”, the “reduction of the risk of death” value in data set [10] is recorded as 27%.
